# Test results reported in patent US20130018360A1 (priority 2011, published 2013).
# Test system: IOP (intra-ocular pressure)
# Experiment: Clinical studies: change from baseline IOP after 20 nL nanodoses of bimatoprost
# Type: in vivo, humans
# Conditions: ~1 μg BP dosed as 20 nL on Days 0-3; IOP collected ~24 hours post-dose
# Procedure: These IOP (intra-ocular pressure) data were collected ˜24 hours post-dose on each day. […] The Day 5 data shown in FIG. 1 below are the change from baseline IOP values following application of Lumigan.
structure (smiles),measurement,value
"CCNC(=O)CCC/C=C\C[C@@H]1[C@@H](/C=C/[C@@H](O)CCc2ccccc2)[C@H](O)C[C@@H]1O [BP, bimatoprost]",IOP-lowering effect (change from baseline IOP),IOP-lowering effect can occur
